Laboratory results from paper PMC10388363, “Novel 1,4-Dihydropyridines as Specific Binders and Activators of SIRT3 Impair Cell Viability and Clonogenicity and Downregulate Hypoxia-Induced Targets in Cancer Cells” (Journal of Medicinal Chemistry, 2023).

Key:
[1] = system: GDH activity in MDA-MB-231 cells; test: GDH activity assay in lysates of treated MDA-MB-231 cells; type: cell-based, human; conditions: 50 μM, 4 h
Description: Selected compounds 3a–d were tested in triple-negative breast cancer MDA-MB-231 cells to evaluate their effects on SIRT3 physiological substrates. First, the effect on the activity of GDH (an established SIRT3 substrate activated through deacetylation[60]−[62]) was investigated by a coupled enzyme assay. […] These effects of SIRT3 activators clearly phenocopied those observed in the SIRT3-overexpressing MDA-MB-231 cells (SIRT3^+) (Figure 6).
GDH activity in cells treated or not with the SIRT3 activators 3a–d and the reference compounds 2 and 3 was measured using a GDH activity assay kit (MAK099, Merck) following the manufacturer’s instructions. Briefly, 10^6 cells were lysed in 40 μL of GDH assay buffer and kept for 10 min in ice. Afterward, lysates were centrifuged to collect supernatants. Ten microliters of supernatant were added to 40 μL of GDH buffer and 100 μL of a mix containing GDH assay buffer, developer, and glutamate. The whole mix was transferred into a 96-well plate and incubated at 37 °C for 3 min. Finally, absorbance was read at 450 nm using a GloMax multi detection system (Promega, Milan, Italy). The absorbance of the assay buffer was subtracted from each experimental sample.

[2] = system: HIF-1α, EPAS-1, and CA-IX protein expression in CAL-62; test: Western blot of HIF-1α, EPAS-1 and CA-IX in CAL-62 cells under hypoxia; type: cell-based; conditions: CAL-62, 50 μM, 48 h, hypoxia
Description: Based on these findings, we decided to assess the ability of the SIRT3 activators 3a–d to impair HIF-1α, EPAS-1, and CA-IX protein expression in CAL-62 (Figure 10A–F) and MDA-MB-231 (Figure 11A–F) cell lines treated with the compounds at 50 μM for 48 h and under hypoxia conditions.
Breast cancer cell line MDA-MB-231, anaplastic thyroid cancer cell line CAL-62 and human keratinocytes HaCaT were purchased from ATCC and were cultured in RPMI 1640 medium (R0883 Sigma Aldrich-MERCK) (MDA-MB-231 and CAL-62) or DMEM medium (11965092, Gibco) supplemented with 10% fetal bovine serum (Sigma-Aldrich-MERCK, F9665), 2 mM glutamine (G7513; Sigma-Aldrich-MERCK), 100 units/mL penicillin and 0.1 mg/mL streptomycin (P0781; Sigma-Aldrich-MERCK). Adherent cells were detached by Trypsin–EDTA solution (TA049; Sigma-Aldrich-MERCK). Cells were maintained at 37 °C in humidified incubator with 5% CO2. Cells were treated with […] (CoCl2) (Merck; C8661) dissolved in distilled, sterile water for 24 h to induce hypoxia (200 μM). Hypoxic and normoxic cells were also treated with 10/50 μM of the indicated compounds (dissolved in DMSO) for 48 h, maintaining the CoCl2 in the culture medium for hypoxic conditions. SIRT3 inhibitor 3-TYP was dissolved in DMSO and added to a final concentration of 1 μM for 24 and/or 48 h.
The following antibodies were used in this study: ACTB (Merck; A5316), HIF1-α (Cell Signaling; 14179), HIF2/EPAS-1 (Santa Cruz Biotechnology sc-13596), HXKII (Santa Cruz Biotechnology sc-6521), CAIX (Novus Biotechnology NB100-417), SIRT3 (Cell Signaling; 2627S), MnSOD (Abcam ab13533), MnSOD K68 (Abcam ab137037), MnSOD K122 (Abcam ab214675), peroxidase-conjugated AffiniPure Goat Anti-Rabbit IgG (H + L) (Jackson ImmunoResearch; 111-035-003), and peroxidase-conjugated AffiniPure Goat Anti-Mouse IgG (H + L) (Jackson ImmunoResearch; 115-035-062).
Treated and untreated cells were collected and centrifuged at 3000 rpm for 5 min. After removing the supernatant, cells were lysed in 70 μL of lysis buffer containing: 50 mM Tris-Cl (Merck; 93352), 250 mM sodium chloride (NaCl, Merck; S7653), 5 mM ethylenediaminetetraacetic acid (EDTA; Merck; E6758), 0.1% Triton X-100 and 0.1 mM dithiothreitol (Merck; D9163) plus 1 mM phenylmethylsulfonyl fluoride (PMSF, Merck; 93482), protease inhibitor cocktail (PI; Merck; P8340), 1 mM sodium orthovanadate (NA3VO4, Merck; S6508), and 10 mM sodium fluoride (NaF, Merck; 201154) (lysis buffer). After 30 min on ice, samples were centrifuged at 13,000 rpm for 10 min at 4 °C, and the supernatants collected. Protein concentration was determined by the Bradford assay (Bio-Rad; 500-0205). The equivalent of 15 or 50 μg of protein was boiled for 5 min, electrophoresed onto denaturing SDS-PAGE gel, and transferred onto a […] nitrocellulose membrane (Bio-Rad; 162-0115). After blocking with 5% milk, membranes were incubated with the appropriate primary antibody overnight. The next day, after three washes with 0.1% Tween 20 (Merck; P9416) in PBS (PBST) for 30 min at rt, membranes were incubated with the appropriate secondary antibody for 1 h at rt. After three more washes in PBST, the detection of the relevant protein was assessed by enhanced chemiluminescence (Lite Ablot TURBO, Euro-Clone; EMP012001). Densitometric analysis of the bands, relative to ACTB, was performed using ImageJ Software v1.51 (NIH, Bethesda, MD, USA).

| Structure (SMILES) | effect on GDH activity in cell lysates [1] | EPAS-1 protein expression [2] | GDH activation [1] | CA-IX protein expression [2] | HIF-1α protein expression [2] |
| --- | --- | --- | --- | --- | --- |
| CCOC(=O)C1=CN(C(=O)c2ccc(OC)c(OC)c2)C=C(C(=O)OCC)C1c1ccccc1 [Compound 3c, Diethyl 1-(3,4-dimethoxybenzoyl)-4-phenyl-1,4-dihydropyridine-3,5-dicarboxylate] | increase in GDH activity | downregulated | – | – | – |
| CCOC(=O)C1=CN(C(=O)c2cc(OC)cc(OC)c2)C=C(C(=O)OCC)C1c1ccccc1 [Compound 3d, Diethyl 1-(3,5-dimethoxybenzoyl)-4-phenyl-1,4-dihydropyridine-3,5-dicarboxylate] | increase in GDH activity | downregulated | around 175% | significantly downregulated | decrease |
| CCOC(=O)C1=CN(C(=O)c2cccc(OC)c2)C=C(C(=O)OCC)C1c1ccccc1 [Compound 3a, Diethyl 1-(3-methoxybenzoyl)-4-phenyl-1,4-dihydropyridine-3,5-dicarboxylate] | increase in GDH activity | – | – | significantly downregulated | – |
